Tests used:
[1] = Surfactant effect on tetrakis aminium dye retention and particle size during emulsification; assay type: physicochemical; conditions: emulsion and evaporation process; emulsifier as labelled
Protocol: The preparation of the aqueous phase: under the stirring with an IKA Ultra-Turrax® T 25 homogenizer at 8000 RPM, 1.2 g of sodium dodecyl sulfate (SDS) was added into 190 g of 4.9% aqueous polyvinyl alcohol (PVA) solution placed in a round bottom flask. An aqueous solution of SDS containing 4.9% PVA was formed after the dissolution of SDS (the aqueous phase).
The preparation of the organic phase: to 88 g of dichloromethane was added 8.0 g of DSM NeoCryl® B-805 polymer (MMA/BMA copolymer), 1.82 g of Epolight™ 1117 dye, and 0.65 g of Cyanox® 1790 in 88 g to allow the formation of a clear solution of B805 polymer and dyes (the polymer: dye weight ratio=4.4:1).
The organic phase (polymer and dyes dissolved in dichloromethane) was injected directly into the aqueous phase (PVA solution with SDS surfactant) at the tip of the Turrax's roto-stator (i.e. directly into the flow being sheared by the roto-stator). The shear mixing at 8000 RPM was continued for 30 minutes. The resulting mixture was decanted into an open-mouth container and stirred magnetically for 16 hours. A solid suspension of particles containing IR dye was obtained. […]
Particle Size and Distribution for the particle heaters The particle size and size distribution of the NIR dye/MMA/BMA copolymer particles were measured by a Horiba LA-950 Particle Size Analyzer in distilled water with pH 7.4 (FIG. 3). […]

[2] = Screening of acrylic polymer carriers and additives for particle performance; assay type: physicochemical; conditions: additive within the particles
From the text: Various commercially available acrylic polymers were screened for preferred particle performance characteristic such as particle size distribution, IR dye stability and encapsulation efficiency.
The loading of dyes within the particles is as high as possible without degrading the cohesion of the polymer. The additives that stabilize the dye within the particles have been studied.

Q: With `CCCCCCCCCCCCCOC(=O)CC(C(=O)OCCCCCCCCCCCCC)S(=O)(=O)O.[Na]` (stereo not drawn) [Aerosol® TR-70, sodium bis(tridecyl) sulfosuccinate] as the compound, how does the “Epolight™ 1117 retention in the particles” value [1] read?
A: The value was 50%.

Q: For `Cc1cc(C(C)(C)C)c(O)c(C)c1Cn1c(=O)n(Cc2c(C)cc(C(C)(C)C)c(O)c2C)c(=O)n(Cc2c(C)cc(C(C)(C)C)c(O)c2C)c1=O` [Cyanox® 1790, 1,3,5-tris(4-tert-butyl-3-hydroxy-2,6-dimethylbenzyl)-1,3,5-triazine-2,4,6-(1H,3H,5H)-trione], which “impact on dye stability” value [2] is on record?
A: Its value is “positive impact on dye stability”.

Q: For `CCCCCCCCCCCCOS(=O)(=O)[O-].[Na+]` [Sodium dodecyl sulfate, sodium dodecyl sulfate], which “Epolight™ 1117 retention in the particles” value [1] is on record?
A: The value was 85-90%.
